Where a name gives a salt, the structure may show the parent alone. Read-outs that look alike come from different tables or passages of the source.
Target: human KAT II (hKAT II) enzyme (Homo sapiens, UniProt Q8N5Z0)
Assay: KAT II Inhibition Spectra Assay
Type: biochemical
Settings: hKAT II, decrease in OD370, 37° C., 15-20 h, read-out: KATII IC50
Method: Formation of kynurenic acid (KYNA) is indirectly assessed by a decrease in light absorbance at 370 nm (OD370) as the L-kynurenine (KYN) substrate is converted by the human KAT II (hKAT II) enzyme into KYNA. An inhibitor would therefore inhibit the decrease in OD370.
The protocol was performed by placing the following reagents into a Costar 384 well black plate (30 μL total assay volume/well): • 10 μL of 3× concentrated compound; • 10 μL of 3× concentrated substrate mix (BGG (Sigma G-5009); 3 mM L-Kynurenine in 150 mM Tris Acetate (Sigma K3750); 3 mM α-ketoglutaric acid in 150 mM Tris Acetate (Sigma K2010); and 210 μM pyridoxal 5-phosphate (PLP) in 150 mM Tris Acetate (Sigma 9255)); and • 10 μL of 3× concentrated enzyme (15 nM enzyme in 150 mM Tris Acetate with 0.3% bovine serum).
Plates were sealed and incubated at 37° C. for 15-20 h before reading OD370 on a SpectraMax Plus plate reader. IC50s were generated by comparing the efficacy of compounds across a concentration range to inhibit a reduction in the OD370 value relative to assay wells with DMSO added in place of concentrated compound.

Chain of human KAT II (hKAT II) enzyme (Q8N5Z0 30-425): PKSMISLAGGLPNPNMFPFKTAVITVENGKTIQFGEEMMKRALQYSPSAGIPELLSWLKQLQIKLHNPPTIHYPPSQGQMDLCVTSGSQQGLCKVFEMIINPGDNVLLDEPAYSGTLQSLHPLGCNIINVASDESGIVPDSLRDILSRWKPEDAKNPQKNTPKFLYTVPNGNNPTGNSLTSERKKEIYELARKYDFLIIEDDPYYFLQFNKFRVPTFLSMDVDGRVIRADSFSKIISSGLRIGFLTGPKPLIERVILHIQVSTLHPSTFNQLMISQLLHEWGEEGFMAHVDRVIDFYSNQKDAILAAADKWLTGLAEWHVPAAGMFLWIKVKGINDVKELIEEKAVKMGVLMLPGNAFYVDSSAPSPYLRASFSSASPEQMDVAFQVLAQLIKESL

SMILES	IC50 (Table 5) [µM]	IC50 (Table 6) [µM]
CCc1ccc2c(c1)N(O)C(=O)C(N)C2 (stereo not drawn) [Example 26]	0.088	–
NC1Cc2cccnc2N(O)C1=O (stereo not drawn) [Example 1, 3-amino-1-hydroxy-3,4-dihydro-1,8-naphthyridin-2(1H)-one, trifluoroacetate salt]	0.0527	–
Cc1ccccc1-c1ccc2c(c1)C[C@H](N)C(=O)N2O [Example 135, (3S)-3-amino-1-hydroxy-6-(2-methylphenyl)-3,4-dihydroquinolin-2(1H)-one, trifluoroacetate salt]	–	0.116
Cc1nc2c(cc1Cc1ccccc1)C[C@H](N)C(=O)N2O [Example 128]	–	0.0255
NC1Cc2ccc(-c3ccco3)cc2N(O)C1=O (stereo not drawn) [Example 51, 3-amino-7-(2-furyl)-1-hydroxy-3,4-dihydroquinolin-2(1H)-one, trifluoroacetate salt]	0.101	–
N[C@H]1Cc2cccc(CN3CCOCC3)c2N(O)C1=O [Example 74, (3S)-3-amino-1-hydroxy-8-(morpholin-4-ylmethyl)-3,4-dihydroquinolin-2(1H)-one, trifluoroacetic acid salt]	–	0.151
N#Cc1cccc(Oc2cnc3c(c2)C[C@H](N)C(=O)N3O)c1 [Example 129]	–	0.0491
N[C@H]1Cc2c(ccc(F)c2F)N(O)C1=O [Example 114]	–	0.037
NC1Cc2ccc(-c3ccccc3OC(F)(F)F)cc2N(O)C1=O (stereo not drawn) [Example 41, 3-amino-1-hydroxy-7-[2-(trifluoromethoxy)phenyl]-3,4-dihydroquinolin-2(1H)-one, trifluoroacetate salt]	0.257	–
COc1cccc2c1N(O)C(=O)C(N)C2 (stereo not drawn) [Example 118]	–	1.27
NC1Cc2cc(C(F)(F)F)ccc2N(O)C1=O (stereo not drawn) [Example 10, 3-amino-1-hydroxy-6-(trifluoromethyl)-3,4-dihydroquinolin-2(1H)-one, hydrochloride salt]	0.0737	–
NC1Cc2ccc(-c3cc(Cl)ccc3F)cc2N(O)C1=O (stereo not drawn) [Example 54, 3-amino-7-(5-chloro-2-fluorophenyl)-1-hydroxy-3,4-dihydroquinolin-2(1H)-one, trifluoroacetate salt]	0.137	–
NC1Cc2ccc(Cl)cc2N(O)C1=O (stereo not drawn) [Example 15]	0.0111	–
N[C@H]1Cc2cc(-c3ccccc3OC(F)(F)F)ccc2N(O)C1=O [Example 132, (3S)-3-amino-1-hydroxy-6-[2-(trifluoromethoxy)phenyl]-3,4-dihydroquinolin-2(1H)-one, trifluoroacetate salt]	–	0.121
Cc1cccc(-c2ccc3c(c2)C[C@H](N)C(=O)N3O)c1 [Example 146, (3S)-3-amino-1-hydroxy-6-(3-methylphenyl)-3,4-dihydroquinolin-2(1H)-one, trifluoroacetate salt]	–	0.0786
COc1ccc(-c2ccc3c(c2)C[C@H](N)C(=O)N3O)cc1 [Example 153, (3S)-3-amino-1-hydroxy-6-(4-methoxyphenyl)-3,4-dihydroquinolin-2(1H)-one, trifluoroacetate salt]	–	0.162
N[C@H]1Cc2c(F)ccc(Cl)c2N(O)C1=O [Example 109]	–	0.288

SMILES	IC50 (Table 5) [µM]	IC50 (Table 6) [µM]
N[C@H]1Cc2cc(-c3ccc(Cl)cc3)ccc2N(O)C1=O [Example 140, (3S)-3-amino-6-(4-chlorophenyl)-1-hydroxy-3,4-dihydroquinolin-2(1H)-one, trifluoroacetate salt]	–	0.252
COc1ncccc1-c1ccc2c(c1)C[C@H](N)C(=O)N2O [Example 151, (3S)-3-amino-1-hydroxy-6-(2-methoxypyridin-3-yl)-3,4-dihydroquinolin-2(1H)-one, trifluoroacetate salt]	–	0.0636
N[C@H]1Cc2cccc(C(F)(F)F)c2N(O)C1=O [Example 20]	0.127	–
CCOc1ccccc1-c1ccc2c(c1)N(O)C(=O)C(N)C2 (stereo not drawn) [Example 57, 3-amino-7-(2-ethoxyphenyl)-1-hydroxy-3,4-dihydroquinolin-2(1H)-one, trifluoroacetate salt]	0.102	–
N[C@H]1Cc2cc(-c3ccc(C(F)(F)F)cc3)cc(C(F)(F)F)c2N(O)C1=O [Example 28]	1.33	–
NC1Cc2ccc(-c3ccc(C(F)(F)F)cc3)cc2N(O)C1=O (stereo not drawn) [Example 53, 3-amino-1-hydroxy-7-[4-(trifluoromethyl)phenyl]-3,4-dihydroquinolin-2(1H)-one, trifluoroacetate salt]	0.206	–
COc1cccc2c1C[C@H](N)C(=O)N2O [Example 12, (3S)-3-amino-1-hydroxy-5-methoxy-3,4-dihydroquinolin-2(1H)-one, hydrochloride salt]	0.379	–
N[C@H]1Cc2cc(-c3ccccc3)ccc2N(O)C1=O [Example 150, (3S)-3-amino-1-hydroxy-6-phenyl-3,4-dihydroquinolin-2(1H)-one, trifluoroacetate salt]	–	0.0967
CCc1cccc2c1N(O)C(=O)[C@@H](N)C2 [Example 110]	–	0.983
NC1Cc2ccc(C3CC3)cc2N(O)C1=O (stereo not drawn) [Example 30]	0.0237	–
NC1Cc2cccc(C(F)(F)F)c2N(O)C1=O (stereo not drawn) [Example 3, 3-amino-1-hydroxy-8-(trifluoromethyl)-3,4-dihydroquinolin-2(1H)-one]	0.204	–
NC1Cc2ccc(-c3cccc(OC(F)(F)F)c3)cc2N(O)C1=O (stereo not drawn) [Example 38, 3-amino-1-hydroxy-7-[3-(trifluoromethoxy)phenyl]-3,4-dihydroquinolin-2(1H)-one, trifluoroacetate salt]	0.133	–
N[C@H]1Cc2ccncc2N(O)C1=O [Example 130]	–	1.57
N[C@H]1Cc2c(Cl)cccc2N(O)C1=O [Example 22]	0.0452	–
N[C@H]1Cc2cccc(Oc3ccccc3)c2N(O)C1=O [Example 77]	–	0.0801
N[C@H]1Cc2cc(Cc3ccccc3)cnc2N(O)C1=O [Example 127]	–	0.0282
N[C@H]1Cc2ccc3c(c2N(O)C1=O)CCO3 [Example 81]	–	0.212

The next lines start with the values.

IC50 (Table 5) [µM]	IC50 (Table 6) [µM]	SMILES
–	0.0433	NC1Cc2cc(Oc3ccccc3Cl)ccc2N(O)C1=O (stereo not drawn) [Example 69, 3-amino-6-(2-chlorophenoxy)-1-hydroxy-3,4-dihydroquinolin-2(1H)-one, hydrochloride salt]
–	0.0411	N#Cc1ccccc1Oc1ccc2c(c1)CC(N)C(=O)N2O (stereo not drawn) [Example 82]
–	0.0428	COc1ccc(Oc2ccc3c(c2)CC(N)C(=O)N3O)cn1 (stereo not drawn) [Example 171, 3-amino-1-hydroxy-6-[(6-methoxypyridin-3-yl)oxy]-3,4-dihydroquinolin-2(1H)-one, ammonium salt]
–	0.101	N[C@H]1Cc2cc(Oc3cccc(C(F)(F)F)c3F)ccc2N(O)C1=O [Example 160, (3S)-3-amino-6-[2-fluoro-3-(trifluoromethyl)phenoxy]-1-hydroxy-3,4-dihydroquinolin-2(1H)-one, trifluoroacetate salt]
0.161	–	CC(C)Oc1ccc(-c2ccc3c(c2)N(O)C(=O)C(N)C3)cc1 (stereo not drawn) [Example 60, 3-amino-1-hydroxy-7-(4-isopropoxyphenyl)-3,4-dihydroquinolin-2(1H)-one, trifluoroacetate salt]
–	0.0246	N#Cc1cccc(Oc2ccc3c(c2)C[C@H](N)C(=O)N3O)c1 [Example 70, 3-{[(3S)-3-amino-1-hydroxy-2-oxo-1,2,3,4-tetrahydroquinolin-6-yl]oxy}benzonitrile, hydrochloride salt]
–	0.0452	N[C@H]1Cc2c(ccc(Oc3ccccc3)c2F)N(O)C1=O [Example 111]
–	0.105	N[C@H]1Cc2cc(Oc3ccc(Cl)c(F)c3)ccc2N(O)C1=O [Example 167, (3S)-3-amino-6-(4-chloro-3-fluorophenoxy)-1-hydroxy-3,4-dihydroquinolin-2(1H)-one, trifluoroacetate salt]
–	0.0686	NC1Cc2cc(Oc3ccc(C(F)(F)F)cc3)ccc2N(O)C1=O (stereo not drawn) [Example 102]
–	0.0346	CN(Cc1ccc2c(c1)C[C@H](N)C(=O)N2O)c1ccccc1 [Example 76, (3S)-3-amino-1-hydroxy-6-{[methyl(phenyl)amino]methyl}-3,4-dihydroquinolin-2(1H)-one]
–	0.0439	NC1Cc2cc(Oc3cccc(OC(F)(F)F)c3)ccc2N(O)C1=O (stereo not drawn) [Example 94]
–	0.0198	N#Cc1ccc(Oc2ccc3c(c2)CC(N)C(=O)N3O)cc1 (stereo not drawn) [Example 99]
–	0.0362	COc1ccc(Oc2ccc3c(c2)CC(N)C(=O)N3O)cc1 (stereo not drawn) [Example 91]
–	0.0513	NC1Cc2cc(Oc3ccccn3)ccc2N(O)C1=O (stereo not drawn) [Example 92]
–	0.0681	NC1Cc2cc(Oc3ccc(Cl)cc3)ccc2N(O)C1=O (stereo not drawn) [Example 105]
–	0.0351	N[C@H]1Cc2cc(Oc3ccc(Cl)cc3)cnc2N(O)C1=O [Example 124]
–	0.0411	NC1Cc2cc(Oc3ccc(O)nc3)ccc2N(O)C1=O (stereo not drawn) [Example 84]
–	0.0775	NC1Cc2cc(Oc3ccc(OC(F)(F)F)cc3)ccc2N(O)C1=O (stereo not drawn) [Example 103]
0.0911	–	COc1ccc(-c2ccc3c(c2)N(O)C(=O)C(N)C3)cc1 (stereo not drawn) [Example 56, 3-amino-1-hydroxy-7-(4-methoxyphenyl)-3,4-dihydroquinolin-2(1H)-one, trifluoroacetate salt]
–	0.06	N[C@H]1Cc2cc(Oc3ccc(Cl)c(Cl)c3)ccc2N(O)C1=O [Example 163, (3S)-3-amino-6-(3,4-dichlorophenoxy)-1-hydroxy-3,4-dihydroquinolin-2(1H)-one, trifluoroacetate salt]

Reference: patent US8183238B2, “Bicyclic and tricyclic compounds as KAT II inhibitors” (priority 2009, dated 2012)
